# Like-named read-outs stand apart in the source and are kept apart here.
# Legend:
# [1] = system: LTB4 -induced skin inflammation; experiment: LTB4 Induced Skin Inflammation (hairless guinea pig); type: in vivo; conditions: for ID50, LTB4-induced skin inflammation, coinjection with LTB4: co-injection, 120 ng LTB4 intradermal; for ED50: Cavia porcellus
# Protocol: Skin inflammation is induced in the hairless guinea pig by the intradermal injection of 50 μl Gey's salt solution/10% DMSO containing 120 ng LTB4. Injections are performed along the dorsal skin of the animals. Test compounds are administered at various times by co-injection, intravenous or oral administration. The test animals are euthanized four to six hours after the LTB4 injection and uniform skin punches are prepared from the injection sites. Punches are homogenized in 0.5% hexadecyltrimethyl ammonium bromide for one minute and centrifuged for 20 minutes at 14,000× g. Leukocyte accumulation is measured by assaying for myeloperoxidase activity in a kinetic assay using dimethoxybenzidine as the substrate. […] Skin injected with 120 ng LTB4 can show myeloperoxidase levels of 0.30-0.40 U/punch. LTB4 induced leukocyte accumulation is confirmed histologically in hematoxylin/eosin stained sections.
# [2] = system: LTB4 -induced bronchoconstriction; experiment: Guinea Pig Bronchoconstriction In Vivo (LTB4-induced); parameters: species or system guinea pig (Hartley strain); conditions: Cavia porcellus, po, read-out: ID50 (mg/kg), p.o., LTB4-induced bronchoconstriction
# [3] = system: LTB4 -induced bronchoconstriction; experiment: as above; parameters: species or system guinea pig (Hartley strain); conditions: Cavia porcellus, iv, i.v. five minutes prior to LTB4 (1 μg/kg i.v.), read-out: ID50 (mg/kg), i.v., LTB4-induced bronchoconstriction
# Protocol: Male guinea pigs (Hartley strain) weighing 300 to 500 g are anesthetized with urethane (2 g/kg) intraperitoneally and a polyethylene cannula is inserted into the jugular vein for drug administration. Tracheal pressure is recorded from a cannula inserted into the trachea and connected to a Gould P23ID pressure transducer. After surgical preparation of the animals, a period of time is allowed for pulmonary functions to stabilize. The test compound is administered intravenously five minutes prior to leukotriene B4 administration according to the following protocol: Animals are paralyzed with succinylcholine (1.2 mg/kg i.v.) and mechanically respirated (Harvard rodent respirator) at 40 breaths/minute and 2.5 cc tidal volume. Propranolol (0.1 mg/kg) is then administered intravenously one minute prior to leukotriene B4 administration. Animals are then challenged with an intermediate constrictory dose of leukotriene B4 (1 μg/kg) delivered intravenously.
# The change (cm H2 O) between pre and peak ventilatory pressure readings is averaged for five control and five drug treated animals. The percent inhibition is calculated from the formula:
# ((Control-Drug Treated)/Control)×100
# When representative compounds of formula I of the invention were utilized as the test compounds the following results were obtained: […]
# LTB4 Receptor = biological target: T1, LTB4 Receptor (Homo sapiens, UniProt Q15722); experiment: LTB4 Receptor Binding Assay (inhibition of 3H-LTB4 binding, human neutrophils); conditions: 0.5 nM 3H-LTB4, 45 minutes on ice, isolated human neutrophils
# T1 construct: Isolated human neutrophils in Gey's salt solution; endogenous in cells; host or cells: human neutrophils isolated from blood (90-95% neutrophils)
# Protocol: Binding assays can be performed in microtiter wells. Isolated human neutrophils in Gey's salt solution are incubated on ice for 45 minutes with 0.5 nM ^3 H-LTB4 in the presence or absence of test compounds. Assays are terminated by adding 12 ml ice cold 50 mM Tris (pH 7.4) followed by rapid filtration under vacuum through GF/C filters. Radioactivity is determined by scintillation counting. Non specific binding is defined as the binding not displaced by 100 fold excess of unlabelled LTB4. Specific binding is defined as the difference between total binding and non-specific binding. Non linear analysis of the binding data is performed using LIGAND (Munson and Rodbard, 1980). Ki (Inhibition Constant) values were determined using the Cheng-Prusoff relationship (Cheng and Prusoff, 1973).
# (§1) Human neutrophils are prepared from citrated or heparinized blood. The blood was diluted 1:1 with Hank's balanced salt solution (HBSS) minus calcium and magnesium and underlayed with 10 ml lymphocyte separation medium (Organon Teknika), followed by centrifugation at 500× g for 30 min., at room temperature. Supernatants are removed down to the red blood cell pellet. HBSS minus calcium and magnesium are added to give 25 ml. To this are added 25 ml 6% dextran in 0.85% NaCl. Samples are mixed and allowed to stand 20 min at room temperature. Supernatants are removed and centrifuged at 500× g for 5 min at 4° C. Pellets are resuspended with 20 ml 0.2% saline for 20 sec followed by the addition of 20 ml 1.6% saline. Samples are centrifuged at 500× g for 5 min at 4° C. The lysis is repeated and the cells (90-95% neutrophils) are resuspended at 2× 10^6 cell/ml in GEY's salt solution.
# [4] = system: myeloperoxidase activity in mucosal scrapings; experiment: Acetic acid colitis (myeloperoxidase activity in mucosal scrapings); type: in vivo, Male Wistar rats; conditions: rat, 10 mg/kg twice daily for 3 days, N=10
# Protocol: Male Wistar rats, weighing 175-225 g, are pretreated with test compound at 10 mg/kg, twice daily for 3 days (72 hours) prior to the evaluation of colitis. Colitis is induced after 2 days (48 hours) with an enema of 2 ml of 3.5% acetic acid; the acetic acid is neutralized after 10 seconds by 3 ml of phosphate-buffered saline, pH 7.4. After 3 days (72 hours), animals are sacrificed and myeloperoxidase activity in mucosal scrapings is determined as described in the skin inflammation model. Myeloperoxidase levels are presented as Units/gm mucosa.
# [5] = system: LTB4 mediated calcium fluxes in human neutrophils; experiment: Calcium Flux Assay (inhibition of LTB4 mediated calcium fluxes in human neutrophils); type: cell-based; conditions: Neutrophil; Fura2 labelled human neutrophils, 2.4 nM LTB4
# Protocol: as §1
# LTB4 induced changes in intracellular calcium concentration are measured using Fura2 labelled human neutrophils. Cells at a concentration of 2-5×10^6 /ml are labelled with 5 μM Fura2 for 30 minutes in Hank's balanced salt solution without calcium and magnesium. The cells are washed and resuspended at a final concentration of 1-2×10^7 cells/ml in Gey's solution. Calcium fluxes are initiated by the addition of 2.4 nM LTB4. Test compounds at appropriate concentrations are added to the cells just prior to the addition of LTB4. […] Fluorescence measurements are made in a Perkin Elmer model LS-5B spectrofluorimeter at a temperature setting of 37° C. Calcium concentrations are determined using the ratio method (ratio of cell fluorescence to media fluorescence).
# When representative compounds of formula I of the invention were tested, the results set forth in Table H and expressed as inhibition of LTB4 mediated calcium fluxes in human neutrophils, were obtained.
# [6] = oral, read-out: ID50, LTB4-induced skin inflammation, oral route
# T1 sequence (Q15722 whole entry): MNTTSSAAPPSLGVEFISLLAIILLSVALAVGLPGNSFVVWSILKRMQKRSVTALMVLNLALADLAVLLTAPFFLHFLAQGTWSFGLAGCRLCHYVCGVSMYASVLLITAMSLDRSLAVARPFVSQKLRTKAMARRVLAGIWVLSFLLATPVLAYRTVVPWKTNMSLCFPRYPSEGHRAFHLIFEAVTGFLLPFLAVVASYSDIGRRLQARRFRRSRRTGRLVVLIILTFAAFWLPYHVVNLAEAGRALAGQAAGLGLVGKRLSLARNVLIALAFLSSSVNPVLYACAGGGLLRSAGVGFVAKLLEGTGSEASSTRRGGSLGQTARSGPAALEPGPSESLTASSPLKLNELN
Structure (SMILES),"ID50, LTB4-induced skin inflammation, coinjection with LTB4 [1] [ng]",ED50 [2] [mg/kg],ED50 [3] [mg/kg],Ki (LTB4 Receptor) [nM],"% inhibition (myeloperoxidase, acetic acid colitis) [4] [%]","ED50 [1, 6] [mg/kg]",IC50 [5] [nM],"ED50 ([1]; intravenous at the time of the intradermal LTB4 injection, read-out: ID50, LTB4-induced skin inflammation, intravenous administration) [mg/kg]"
"CCCc1c(OCCCCCOc2ccc(C(=O)CCCC(=O)O)cc2CCC(=O)O)ccc2c1OCCC2=O [Example 87, 3-(2-Carboxyethyl)-4-[5-[(3,4-dihydro-4-oxo-8-propyl-2H-1-benzopyran-7-yl)oxy]pentyloxy]-δ-oxobenzenepentanoic Acid]",20,> 10,4.41,3,–,–,–,–
"CCCc1c(OCCCCCCc2ccc(OCCCC(=O)O)cc2CCC(=O)O)ccc2c1OCCC2=O [Example 54, 5-(3-Carboxypropoxy)-2-[6-[(3,4-dihydro-4-oxo-8-propyl-2H-1-benzopyran-7-yl)oxy]hexyl]benzenepropanoic Acid]",10,8.7,0.01,–,68,5,2,–
"CCCc1c(OCCCCCOc2cccc(OCCCCC(=O)O)c2CCC(=O)O)ccc2c1OCCC2=O [Example 62, 6-(4-Carboxybutoxy)-2-[5-[(3,4-dihydro-4-oxo-8-propyl-2H-1-benzopyran-7-yl)oxy]pentyloxy]benzenepropanoic Acid]",35,–,2.06,0.8,–,–,–,–
"CCCc1c(OCCCCCOc2ccccc2CCC(=O)O)ccc2c1OCCC2=O [Example 4, 2-[5-[(3,4-Dihydro-4-oxo-8-propyl-2H-1-benzopyran-7-yl)oxy]pentyloxy]benzenepropanoic Acid]",–,> 10,0.66,–,–,–,26,–
"CCCc1c(OCCCCCCc2cccc(OCCCCCO)c2CCC(=O)O)ccc2c1OCCC2=O [Example 180, 2-[6-[(3,4-Dihydro-4-oxo-8-propyl-2H-1-benzopyran-7-yl)oxy]hexyl]-6-[(5-hydroxypentyl)oxy]benzenepropanoic Acid]",–,4.8,0.14,1,–,–,1,–
"CCCc1c(OCCCCCCc2ccc(C(=O)c3cccc(C(=O)O)c3)cc2CCC(=O)O)ccc2c1OCCC2=O [Example 99, 5-[(3-Carboxyphenyl)carbonyl]-2-[6-[(3,4-dihydro-4-oxo-8-propyl-2H-1-benzopyran-7-yl)oxy]hexyl]benzenepropanoic Acid]",20,–,–,1,–,–,–,–
"CCCc1c(OCCCCCCc2cccc(CCCCCC(=O)O)c2CCC(=O)O)ccc2c1OCCC2=O [Example 169, 2-(2-Carboxyethyl)-3-[6-[(3,4-dihydro-4-oxo-8-propyl-2H-1-benzopyran-7-yl)oxy]hexyl]benzenehexanoic Acid]",–,4.4,0.13,1,–,–,1,–
"CCCc1c(OCCCCCOc2ccc(C(=O)c3cccc(C(=O)O)c3)cc2CCC(=O)O)ccc2c1OCCC2=O [Example 20, 5-[(3-Carboxyphenyl)carbonyl]-2-[5-[(3,4-dihydro-4-oxo-8-propyl-2H-1-benzopyran-7-yl)oxy]pentyloxy]benzenepropanoic Acid]",100,–,1.46,2,–,30,1,6
"CCCc1c(OCCCCCCc2cccc(OCCCCCC(=O)O)c2CCC(=O)O)ccc2c1OCCC2=O [Example 157, 2-[(5-Carboxypentyl)oxy]-6-[6-[(3,4-dihydro-4-oxo-8-propyl-2H-1-benzopyran-7-yl)oxy]hexyl]benzenepropanoic Acid]",–,0.27,0.07,–,–,–,1,–

# Source: patent US5434186A, “Carboxylic acid leukotriene B4 antagonists” (Hoffmann-La Roche Inc., priority 1993, dated 1995)
